Measurements published in ChEMBL document CHEMBL3758109, “A novel triazole derivative of betulinic acid induces extrinsic and intrinsic apoptosis in human leukemia HL-60 cells” (Eur J Med Chem, 2016).

Legend:
[1] = Cytotoxicity against human PC3 cells assessed as cell growth inhibition at 10 uM after 48 hrs by MTT assay; format: functional; conditions: PC-3, 48 h, read-out: GI
[2] = test system: A549; assay: Cytotoxicity against human A549 cells assessed as cell growth inhibition at 10 uM after 48 hrs by MTT assay; format: functional; conditions: A549, 48 h, read-out: GI
[3] = Cytotoxicity against human MIAPaCa2 cells assessed as cell growth inhibition at 10 uM after 48 hrs by MTT assay; format: functional; conditions: MIA PaCa-2, 48 h, read-out: GI
[4] = Cytotoxicity against human HL60 cells assessed as cell growth inhibition at 10 uM after 48 hrs by MTT assay; format: functional; conditions: HL-60, 48 h, read-out: GI
[5] = Cytotoxicity against human MIAPaCa2 cells assessed as cell growth inhibition after 48 hrs by MTT assay; format: functional, cell-based; conditions: MIA PaCa-2, 48 h
[6] = test system: A549; assay: Cytotoxicity against human A549 cells assessed as cell growth inhibition after 48 hrs by MTT assay; format: functional, cell-based; conditions: A549, 48 h
[7] = Cytotoxicity against human HL60 cells assessed as cell growth inhibition after 48 hrs by MTT assay; format: functional, cell-based; conditions: HL-60, 48 h
[8] = Cytotoxicity against human PC3 cells assessed as cell growth inhibition after 48 hrs by MTT assay; format: functional, cell-based; conditions: PC-3, 48 h

Row | SMILES | inhibition of growth at 10 µM [1] [%] | inhibition of growth at 10 µM [2] [%] | inhibition of growth at 10 µM [3] [%] | inhibition of growth at 10 µM [4] [%] | IC50 [5] [µM] | IC50 [6] [µM] | IC50 [7] [µM] | IC50 [8] [µM]
1 | C=C(C)[C@@H]1CC[C@]2(C(=O)OCc3cn(/C=C/c4ccccc4)nn3)CC[C@]3(C)[C@H](CC[C@@H]4[C@@]5(C)CC[C@H](O)C(C)(C)[C@@H]5CC[C@]43C)[C@@H]12 | 8 | 47 | 35 | 20 | – | – | – | –
2 | C=C(C)[C@@H]1CC[C@]2(C(=O)OCc3cn(-c4ccc(C(C)(C)C)cc4)nn3)CC[C@]3(C)[C@H](CC[C@@H]4[C@@]5(C)CC[C@H](O)C(C)(C)[C@@H]5CC[C@]43C)[C@@H]12 | 9 | 9 | 9 | 11 | – | – | – | –
3 | C=C(C)[C@@H]1CC[C@]2(C(=O)OCc3cn(-c4ccc(F)cc4)nn3)CC[C@]3(C)[C@H](CC[C@@H]4[C@@]5(C)CC[C@H](OCc6cn(-c7ccc(F)cc7)nn6)C(C)(C)[C@@H]5CC[C@]43C)[C@@H]12 | 8 | 11 | 7 | 13 | – | – | – | –
4 | C=C(C)[C@@H]1CC[C@]2(C(=O)OCc3cn(-c4cccc(OC)c4)nn3)CC[C@]3(C)[C@H](CC[C@@H]4[C@@]5(C)CC[C@H](O)C(C)(C)[C@@H]5CC[C@]43C)[C@@H]12 | 10 | 10 | 28 | 5 | 22 | 25 | 25 | 25
5 | C=C(C)[C@@H]1CC[C@]2(C(=O)OCc3cn(-c4ccccc4C#N)nn3)CC[C@]3(C)[C@H](CC[C@@H]4[C@@]5(C)CC[C@H](O)C(C)(C)[C@@H]5CC[C@]43C)[C@@H]12 | 6 | 9 | 4 | 22 | – | – | – | –
6 | C=C(C)[C@@H]1CC[C@]2(C(=O)OCc3cn(-c4ccc5ccccc5c4)nn3)CC[C@]3(C)[C@H](CC[C@@H]4[C@@]5(C)CC[C@H](O)C(C)(C)[C@@H]5CC[C@]43C)[C@@H]12 | 7 | 1 | 6 | 18 | – | – | – | –
7 | C=C(C)[C@@H]1CC[C@]2(C(=O)OCc3cn(-c4cc(F)c(F)cc4Br)nn3)CC[C@]3(C)[C@H](CC[C@@H]4[C@@]5(C)CC[C@H](O)C(C)(C)[C@@H]5CC[C@]43C)[C@@H]12 | 17 | 10 | 36 | 48 | 27 | 100 | 12 | 100
8 | C=C(C)[C@@H]1CC[C@]2(C(=O)OCc3cn(-c4ccc(-c5ccccc5)cc4)nn3)CC[C@]3(C)[C@H](CC[C@@H]4[C@@]5(C)CC[C@H](O)C(C)(C)[C@@H]5CC[C@]43C)[C@@H]12 | 10 | 5 | 10 | 13 | – | – | – | –
9 | C=C(C)[C@@H]1CC[C@]2(C(=O)OCc3cn(-c4cccnc4Cl)nn3)CC[C@]3(C)[C@H](CC[C@@H]4[C@@]5(C)CC[C@H](O)C(C)(C)[C@@H]5CC[C@]43C)[C@@H]12 | 30 | 40 | 55 | 46 | 8 | 50 | 18 | 69
10 | C=C(C)[C@@H]1CC[C@]2(C(=O)OCc3cn(-c4ccccc4)nn3)CC[C@]3(C)[C@H](CC[C@@H]4[C@@]5(C)CC[C@H](O)C(C)(C)[C@@H]5CC[C@]43C)[C@@H]12 | 25 | 27 | 39 | 11 | 18 | 18 | 27 | 18
11 | C=C(C)[C@@H]1CC[C@]2(C(=O)OCc3cn(-c4ccccc4I)nn3)CC[C@]3(C)[C@H](CC[C@@H]4[C@@]5(C)CC[C@H](O)C(C)(C)[C@@H]5CC[C@]43C)[C@@H]12 | 29 | 40 | 53 | 38 | 8 | > 100 | 27 | > 100
12 | C=C(C)[C@@H]1CC[C@]2(C(=O)OCc3cn(-c4cccc(OCc5ccc(F)cc5)c4)nn3)CC[C@]3(C)[C@H](CC[C@@H]4[C@@]5(C)CC[C@H](O)C(C)(C)[C@@H]5CC[C@]43C)[C@@H]12 | 4 | 6 | 9 | 32 | – | – | – | –
13 | C=C(C)[C@@H]1CC[C@]2(C(=O)OCc3cn(-c4cccc([N+](=O)[O-])c4)nn3)CC[C@]3(C)[C@H](CC[C@@H]4[C@@]5(C)CC[C@H](O)C(C)(C)[C@@H]5CC[C@]43C)[C@@H]12 | 10 | 8 | 9 | 21 | – | – | – | –
14 | C=C(C)[C@@H]1CC[C@]2(C(=O)OCc3cn(-c4ccc(NC(=O)c5ccccc5)cc4)nn3)CC[C@]3(C)[C@H](CC[C@@H]4[C@@]5(C)CC[C@H](O)C(C)(C)[C@@H]5CC[C@]43C)[C@@H]12 | 21 | 2 | 0 | 0 | – | – | – | –
15 | C=C(C)[C@@H]1CC[C@]2(C(=O)OCc3cn(-c4cccc5c(O)cccc45)nn3)CC[C@]3(C)[C@H](CC[C@@H]4[C@@]5(C)CC[C@H](O)C(C)(C)[C@@H]5CC[C@]43C)[C@@H]12 | 5 | 7 | 3 | 26 | – | – | – | –
16 | C#CCOC(=O)[C@]12CC[C@@H](C(=C)C)[C@@H]1[C@H]1CC[C@@H]3[C@@]4(C)CC[C@H](O)C(C)(C)[C@@H]4CC[C@@]3(C)[C@]1(C)CC2 | 46 | 41 | 20 | 50 | – | – | – | –
17 | C=C(C)[C@@H]1CC[C@]2(C(=O)OCc3cn(-c4c(F)ccc(OC)c4Br)nn3)CC[C@]3(C)[C@H](CC[C@@H]4[C@@]5(C)CC[C@H](O)C(C)(C)[C@@H]5CC[C@]43C)[C@@H]12 | 5 | 7 | 7 | 12 | – | – | – | –
18 | C=C(C)[C@@H]1CC[C@]2(C(=O)OCc3cn(-c4ccc(C=O)cc4)nn3)CC[C@]3(C)[C@H](CC[C@@H]4[C@@]5(C)CC[C@H](O)C(C)(C)[C@@H]5CC[C@]43C)[C@@H]12 | 9 | 4 | 7 | 21 | – | – | – | –
19 | C=C(C)[C@@H]1CC[C@]2(C(=O)OCc3cn(-c4cccc(OC)c4OC)nn3)CC[C@]3(C)[C@H](CC[C@@H]4[C@@]5(C)CC[C@H](O)C(C)(C)[C@@H]5CC[C@]43C)[C@@H]12 | 49 | 48 | 30 | 58 | – | – | – | –
20 | C=C(C)[C@@H]1CC[C@]2(C(=O)OCc3cn(-c4ccccc4C#N)nn3)CC[C@]3(C)[C@H](CC[C@@H]4[C@@]5(C)CC[C@H](OCc6cn(-c7ccccc7C#N)nn6)C(C)(C)[C@@H]5CC[C@]43C)[C@@H]12 | 15 | 0 | 23 | 12 | – | – | – | –
21 | C=C(C)[C@@H]1CC[C@]2(C(=O)OCc3cn(-c4ccc5oc6ccccc6c5c4)nn3)CC[C@]3(C)[C@H](CC[C@@H]4[C@@]5(C)CC[C@H](O)C(C)(C)[C@@H]5CC[C@]43C)[C@@H]12 | 4 | 5 | 7 | 14 | – | – | – | –
22 | C=C(C)[C@@H]1CC[C@]2(C(=O)OCc3cn(-c4cccc5c(O)cccc45)nn3)CC[C@]3(C)[C@H](CC[C@@H]4[C@@]5(C)CC[C@H](OCc6cn(-c7cccc8c(O)cccc78)nn6)C(C)(C)[C@@H]5CC[C@]43C)[C@@H]12 | 18 | 18 | 19 | 23 | – | – | – | –
23 | C=C(C)[C@@H]1CC[C@]2(C(=O)OCc3cn(-c4ccc(OCCC)c(Cl)c4)nn3)CC[C@]3(C)[C@H](CC[C@@H]4[C@@]5(C)CC[C@H](O)C(C)(C)[C@@H]5CC[C@]43C)[C@@H]12 | 7 | 1 | 3 | 23 | – | – | – | –
24 | C=C(C)[C@@H]1CC[C@]2(C(=O)OCc3cn(-c4ccc(C)cc4)nn3)CC[C@]3(C)[C@H](CC[C@@H]4[C@@]5(C)CC[C@H](O)C(C)(C)[C@@H]5CC[C@]43C)[C@@H]12 | 67 | 52 | 34 | 56 | – | – | – | –
25 | C=C(C)[C@@H]1CC[C@]2(C(=O)OCc3cn(-c4cc(C)ccc4C)nn3)CC[C@]3(C)[C@H](CC[C@@H]4[C@@]5(C)CC[C@H](O)C(C)(C)[C@@H]5CC[C@]43C)[C@@H]12 | 44 | 41 | 38 | 51 | – | – | – | –
